These results are taken from patent US7524846B2, “Arylalkyl- and cycloalkylalkyl-piperazine derivatives and methods of their use” (Wyeth, priority 2003, dated 2009).

Counter-ions that a name gives are not always drawn.

This assay has as its target T1, hNET (Homo sapiens, UniProt P23975).
T1 construct: expressed in transfected cells; host or cells: MDCK-Net6 (MDCK cells stably transfected with hNET)
Kind of assay: Norepinephrine (NE) uptake assay in MDCK-Net6 cells. In kind it is cell-based. Particulars: [3H]NE uptake, MDCK-Net6 cells stably transfected with human hNET; for inhibition at 1 µM: 1 μM test compound; for EC50: test range 1 to 10,000 nM. On the procedure: MDCK-Net6 cells, stably transfected with human hNET (Pacholczyk, T., R. D. Blakely, and S. G. Amara, Nature, 1991, 350(6316): p. 350-4) were cultured in growth medium containing high glucose DMEM (Gibco, Cat. No. 11995), 10% FBS (dialyzed, heat-inactivated, US Bio-Technologies, Lot FBD1129HI) and 500 μg/ml G418 (Gibco, Cat. No. 10131). Cells were plated at 300,000/T75 flask and cells were split twice weekly. The JAR cell line (human placental choriocarcinoma) was purchased from ATCC (Cat. No. HTB-144). The cells were cultured in growth medium containing RPMI 1640 (Gibco, Cat. No. 72400), 10% FBS (Irvine, Cat. No. 3000), 1% sodium pyruvate (Gibco, Cat. No. 1136) and 0.25% glucose. Cells were plated at 250,000 cells/T75 flask and split twice weekly. For all assays, cells were plated in Wallac 96-well sterile plates (PerkinElmer, Cat. No. 3983498).
On day 1, cells were plated at 3,000 cells/well in growth medium and maintained in a cell incubator (37° C., 5% CO2). On day 2, growth medium was replaced with 200 μl of assay buffer (25 mM HEPES; 120 mM NaCl; 5 mM KCl; 2.5 mM CaCl2; 1.2 mM MgSO4; 2 mg/ml glucose (pH 7.4, 37° C.)) containing 0.2 mg/ml ascorbic acid and 10 μM pargyline. Plates containing cells with 200 μl of assay buffer were equilibrated for 10 minutes at 37° C. prior to addition of compounds. A stock solution of desipramine was prepared in DMSO (10 mM) and delivered to triplicate wells containing cells for a final test concentration of 1 μM. Data from these wells were used to define non-specific NE uptake (minimum NE uptake). Test compounds were prepared in DMSO (10 mM) and diluted in assay buffer according to test range (1 to 10,000 nM). Twenty-five microliters of assay buffer (maximum NE uptake) or test compound were added directly to triplicate wells containing cells in 200 μl of assay buffer. The cells in assay buffer with test compounds were incubated for 20 minutes at 37° C. To initiate the NE uptake, [^3H]NE diluted in assay buffer (120 nM final assay concentration) was delivered in 25 μl aliquots to each well and the plates were incubated for 5 minutes (37° C.). The reaction was terminated by decanting the supernatant from the plate. The plates containing cells were washed twice with 200 μl assay buffer (37° C.) to remove free radioligand. The plates were then inverted, left to dry for 2 minutes, then reinverted and air-dried for an additional 10 minutes. The cells were lysed in 25 μl of 0.25 N NaOH solution (4° C.), placed on a shake table and vigorously shaken for 5 minutes. After cell lysis, 75 μl of scintillation cocktail was added to each well and the plates were sealed with film tape. The plates were returned to the shake table and vigorously shaken for a minimum of 10 minutes to ensure adequate partitioning of organic and aqueous solutions. The plates were counted in a Wallac Microbeta counter (PerkinElmer) to collect the raw cpm data.
For each experiment, a data stream of cpm values collected from the Wallac Microbeta counter was downloaded to a Microsoft Excel statistical application program. Calculations of EC50 values were made using the transformed-both-sides logistic dose response program written by Wyeth Biometrics Department. The statistical program uses mean cpm values from wells representing maximum binding or uptake (assay buffer) and mean cpm values from wells representing minimum binding or uptake ((1 μM desipramine (hNET) or 1 μM paroxetine (hSERT)). Estimation of the EC50 value was completed on a log scale and the line was fit between the maximum and minimum binding or uptake values. All graphic data representation was generated by normalizing each data point to a mean percent based on the maximum and minimum binding or uptake values. The EC50 values reported from multiple experiments were calculated by pooling the raw data from each experiment and analyzing the pooled data as one experiment.

T1 sequence (P23975 whole entry): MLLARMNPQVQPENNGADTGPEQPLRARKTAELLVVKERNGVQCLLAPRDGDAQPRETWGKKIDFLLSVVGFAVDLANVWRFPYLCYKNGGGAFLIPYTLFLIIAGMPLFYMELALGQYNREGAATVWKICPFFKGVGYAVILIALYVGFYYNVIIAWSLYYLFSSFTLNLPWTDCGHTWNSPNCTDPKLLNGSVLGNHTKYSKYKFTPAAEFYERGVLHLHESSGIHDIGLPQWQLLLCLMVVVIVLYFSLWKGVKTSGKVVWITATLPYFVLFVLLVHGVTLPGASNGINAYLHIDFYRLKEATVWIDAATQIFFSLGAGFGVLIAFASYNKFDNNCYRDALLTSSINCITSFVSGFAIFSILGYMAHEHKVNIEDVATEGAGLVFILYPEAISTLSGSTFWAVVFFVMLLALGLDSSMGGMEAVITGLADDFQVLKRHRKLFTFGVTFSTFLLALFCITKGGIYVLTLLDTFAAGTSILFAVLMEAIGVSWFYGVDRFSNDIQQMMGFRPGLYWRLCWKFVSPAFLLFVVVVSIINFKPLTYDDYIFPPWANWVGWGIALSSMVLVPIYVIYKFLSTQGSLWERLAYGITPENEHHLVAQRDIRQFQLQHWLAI

What is called inhibition is the percentage by which the read-out fell short of the control. The low end stands for a weak effect, the high end for a strong effect. Broadly, the EC50 is the midpoint of the concentration-response curve. The molecule `OC1(C(CN2CCN(CCc3ccccc3)CC2)c2cccc(Cl)c2)CCCCC1` (stereo not drawn) [Example 122, 1-{1-(3-chlorophenyl)-2-[4-(2-phenylethyl)piperazin-1-yl]ethyl}cyclohexanol dihydrochloride] showed an inhibition at 1 µM of 96% and an EC50 of 75 nM.

Molecule `OC1(C(CN2CCN(Cc3ccnc4ccccc34)CC2)c2cccc(Cl)c2)CCCCC1` (stereo not drawn) [Example 127, 1-{1-(3-chlorophenyl)-2-[4-(quinolin-4-ylmethyl)piperazin-1-yl]ethyl}cyclohexanol dihydrochloride] had an inhibition at 1 µM of 86% and a half-maximal effective concentration (EC50) of 92 nM.

In turn, `OC1(C(CN2CCN(CC3CCCCC3)CC2)c2cccc(Cl)c2)CCCCC1` (stereo not drawn) [Example 126, 1-{1-(3-chlorophenyl)-2-[4-(cyclohexylmethyl)piperazin-1-yl]ethyl}cyclohexanol dihydrochloride] displayed an inhibition at 1 µM of 93% and an EC50 of 130 nM.

Molecule `OC1(C(CN2CCN(CC3CC3)CC2)c2cccc(Cl)c2)CCCCC1` (stereo not drawn) [Example 118, 1-{1-(3-chlorophenyl)-2-[4-(cyclopropylmethyl)piperazin-1-yl]ethyl}cyclohexanol dihydrochloride] had an inhibition at 1 µM of 97% and a concentration giving a half-maximal response (EC50) of 57 nM.

On to `OC1(C(CN2CCN(Cc3ccc4ccccc4c3)CC2)c2cccc(Cl)c2)CCCCC1` (stereo not drawn) [Example 124, 1-{1-(3-chlorophenyl)-2-[4-(2-naphthylmethyl)piperazin-1-yl]ethyl}cyclohexanol dihydrochloride], for which the inhibition at 1 µM was determined as 94% and the EC50 was 190 nM.

`OC1(C(CN2CCN(Cc3cccc(Oc4ccccc4)c3)CC2)c2cccc(Cl)c2)CCCCC1` (stereo not drawn) [Example 123, 1-{1-(3-chlorophenyl)-2-[4-(3-phenoxybenzyl)piperazin-1-yl]ethyl}cyclohexanol dihydrochloride] displayed an inhibition at 1 µM of 96% and a half-maximal effective concentration (EC50) of 290 nM.

In turn, `OC1(C(CN2CCN(Cc3ccoc3)CC2)c2cccc(Cl)c2)CCCCC1` (stereo not drawn) [Example 125, 1-{1-(3-chlorophenyl)-2-[4-(3-furylmethyl)piperazin-1-yl]ethyl}cyclohexanol dihydrochloride] registered an inhibition at 1 µM of 93% and a 50% effective concentration (EC50) of 120 nM.

`OC1(C(CN2CCN(Cc3ccncc3)CC2)c2cccc(Cl)c2)CCCCC1` (stereo not drawn) [Example 133, 1-{1-(3-chlorophenyl)-2-[4-(pyridin-4-ylmethyl)piperazin-1-yl]ethyl}cyclohexanol dihydrochloride] came in with an inhibition at 1 µM of 77% and an EC50 of 460 nM.

Take `OC1(C(CN2CCN(Cc3ccc(Oc4ccccc4)cc3)CC2)c2cccc(Cl)c2)CCCCC1` (stereo not drawn) [Example 132, 1-{1-(3-chlorophenyl)-2-[4-(4-phenoxybenzyl)piperazin-1-yl]ethyl}cyclohexanol dihydrochloride]: the inhibition at 1 µM was 77% and a half-maximal effect (EC50) was put at 70 nM.

In turn, `OC1(C(CN2CCN(Cc3ccc(OCc4ccccc4)cc3)CC2)c2cccc(Cl)c2)CCCCC1` (stereo not drawn) [Example 131, 1-[2-{4-[4-(benzyloxy)benzyl]piperazin-1-yl}-1-(3-chlorophenyl)ethyl]cyclohexanol dihydrochloride] came in with an inhibition at 1 µM of 78% and a concentration giving a half-maximal response (EC50) of 170 nM.

The molecule `OC1(C(CN2CCN(Cc3cc4ccccc4o3)CC2)c2cccc(Cl)c2)CCCCC1` (stereo not drawn) [Example 130, 1-[2-[4-(1-benzofuran-2-ylmethyl)piperazin-1-yl]-1-(3-chlorophenyl)ethyl]cyclohexanol dihydrochloride] had an inhibition at 1 µM of 79% and an EC50 of 890 nM.

The molecule `CC(CN1CCN(CC(c2cccc(Cl)c2)C2(O)CCCCC2)CC1)c1ccccc1` (stereo not drawn) [Example 129, 1-{1-(3-chlorophenyl)-2-[4-(2-phenylpropyl)piperazin-1-yl]ethyl}cyclohexanol dihydrochloride] registered an inhibition at 1 µM of 81% and an EC50 of 430 nM.

In the case of `CC(CCN1CCN(CC(c2cccc(Cl)c2)C2(O)CCCCC2)CC1)c1ccccc1` (stereo not drawn) [Example 121, 1-{1-(3-chlorophenyl)-2-[4-(3-phenylbutyl)piperazin-1-yl]ethyl}cyclohexanol dihydrochloride], at 1 µM the inhibition was 97% and the EC50 was determined as 22 nM.

Molecule `OC1(C(CN2CCN(CC3CC=CCC3)CC2)c2cccc(Cl)c2)CCCCC1` (stereo not drawn) [Example 119, 1-{1-(3-chlorophenyl)-2-[4-(cyclohex-3-en-1-ylmethyl)piperazin-1-yl]ethyl}cyclohexanol dihydrochloride] came in with an inhibition at 1 µM of 97% and a concentration for a half-maximal effect (EC50) of 110 nM.

`OC1(C(CN2CCN(Cc3cccnc3)CC2)c2cccc(Cl)c2)CCCCC1` (stereo not drawn) [Example 134, 1-{1-(3-chlorophenyl)-2-[4-(pyridin-3-ylmethyl)piperazin-1-yl]ethyl}cyclohexanol dihydrochloride] returned an inhibition at 1 µM of 69% and a half-maximal effective concentration (EC50) of 930 nM.

Regarding `CCc1ccc(CN2CCN(CC(c3cccc(Cl)c3)C3(O)CCCCC3)CC2)o1` (stereo not drawn) [Example 128, 1-(1-(3-chlorophenyl)-2-{4-[(5-ethyl-2-furyl)methyl]piperazin-1-yl}ethyl)cyclohexanol dihydrochloride], the inhibition at 1 µM is 83% and the midpoint of the response, the EC50, lay at 490 nM.

Take `COc1ccc2cc(CN3CCN(CC(c4cccc(Cl)c4)C4(O)CCCCC4)CC3)ccc2c1` (stereo not drawn) [Example 117, 1-(1-(3-chlorophenyl)-2-{4-[(6-methoxy-2-naphthyl)methyl]piperazin-1-yl}ethyl)cyclohexanol dihydrochloride]: the inhibition at 1 µM is 87% and the EC50 was 61 nM.

`OC1CCCC(CN2CCN(CC(c3cccc(Cl)c3)C3(O)CCCCC3)CC2)O1` (stereo not drawn) [Example 120, 6-({4-[2-(3-chlorophenyl)-2-(1-hydroxycyclohexyl)ethyl]piperazin-1-yl}methyl)tetrahydro-2H-pyran-2-ol dihydrochloride]: the inhibition at 1 µM turned out to be 97% and the concentration for a half-maximal effect (EC50) was found to be 130 nM.
